Structures can show the parent of a compound that is named as a salt.
Columns and labels:
[1] = tested on: Murcott mandarin clippings; experiment: Foliar application to citrus clippings, negative ESI mass spectrum of reservoir water after 24 hours; settings: 25 μmoles in 1:1 neem oil, 24 hour incubation; for penicillin G/V or metabolite peaks detected in reservoir water: negative ESI mass spectrum
HLB = settings: cited from earlier work; for effect on HLB infected trees: spraying or common treatment, background statement
Candidatus Liberibacter = settings: background statement, cited from earlier work; for effectiveness against the pathogenic bacteria: grafting method
citrus leaves = settings: external application, background statement; cited from earlier work
[2] = tested on: fire blight (Erwinia amylovera); settings: background statement; cited from earlier work

| Molecule | penetration of waxy cuticle layer and epidermis to access the phloem [1] | penicillin G/V or metabolite peaks detected in reservoir water [1] | hydrolysis of the ester into the active antibiotic by citrus tissue [1] | further results |
| --- | --- | --- | --- | --- |
| CC1(C)S[C@@H]2[C@H](NC(=O)COc3ccccc3)C(=O)N2[C@H]1C(=O)OCc1ccccc1 [product compound 4, Benzyl(2S,5R,6R)-3,3-dimethyl-7-oxo-6-(2-phenoxyacetamido)-4-thia-1-azabicyclo[3.2.0]heptane-2-carboxylate] | substantially reduce permeability | no recognizable metabolite peaks were detected |  |  |
| CC(C)(C)C(=O)OCOC(=O)[C@@H]1N2C(=O)[C@@H](NC(=O)Cc3ccccc3)[C@H]2SC1(C)C [product compound 7, (Pivaloyloxy)methyl (2S,5R,6R)-3,3-dimethyl-7-oxo-6-(2-phenylacetamido)-4-thia-1-azabicyclo[3.2.0]heptane-2-carboxylate] | affectively penetrate through the waxy cuticle layer and through the epidermis to access the phloem | base peaks in the mass spectrum corresponded to the active antibiotics | hydrolyzed into the active antibiotic |  |
| [Cu] [Copper] |  |  |  | effect on HLB infected trees (HLB): not been found to be effective |
| phenoxymethylpenicillin (penicillin V) |  |  |  | phytotoxicity (Candidatus Liberibacter): very little phytotoxicity; effectiveness against the pathogenic bacteria (Candidatus Liberibacter): extremely effective; penetration of citrus leaves or stems (citrus leaves): do not easily penetrate the waxy cuticle covering |
| COC(=O)[C@@H]1N2C(=O)[C@@H](NC(=O)COc3ccccc3)[C@H]2SC1(C)C [product compound 2, Methyl(2S,5R,6R)-3,3-dimethyl-7-oxo-6-(2-phenoxyacetamido)-4-thia-1-azabicyclo[3.2.0]heptane-2-carboxylate] | affectively penetrate through the waxy cuticle layer and through the epidermis to access the phloem |  | not being successfully metabolized to the active antibiotic |  |
| CCCCCCCCCC(=O)OCOC(=O)[C@@H]1N2C(=O)[C@@H](NC(=O)COc3ccccc3)[C@H]2SC1(C)C [product compound 6, (Decanoyloxy)methyl(2S,5R,6R)-3,3-dimethyl-7-oxo-6-(2-phenoxyacetamido)-4-thia-1-azabicyclo[3.2.0]heptane-2-carboxylate] | affectively penetrate through the waxy cuticle layer and through the epidermis to access the phloem | base peaks in the mass spectrum corresponded to the active antibiotics | hydrolyzed into the active antibiotic |  |
| CC(C)(C)C(=O)OCOC(=O)[C@@H]1N2C(=O)[C@@H](NC(=O)COc3ccccc3)[C@H]2SC1(C)C [product compound 8, (Pivaloyloxy)methyl (2S,5R,6R)-3,3-dimethyl-7-oxo-6-(2-phenoxyacetamido)-4-thia-1-azabicyclo[3.2.0]heptane-2-carboxylate] | affectively penetrate through the waxy cuticle layer and through the epidermis to access the phloem | base peaks in the mass spectrum corresponded to the active antibiotics | hydrolyzed into the active antibiotic |  |
| CC1(C)S[C@@H]2[C@H](NC(=O)Cc3ccccc3)C(=O)N2[C@H]1C(=O)OCc1ccccc1 [product compound 3, Benzyl(2S,5R,6R)-3,3-dimethyl-7-oxo-6-(2-phenylacetamido)-4-thia-1-azabicyclo[3.2.0]heptane-2-carboxylate] | substantially reduce permeability | no recognizable metabolite peaks were detected |  |  |
| COC(=O)[C@@H]1N2C(=O)[C@@H](NC(=O)Cc3ccccc3)[C@H]2SC1(C)C [product compound 1, Methyl(2S,5R,6R)-3,3-dimethyl-7-oxo-6-(2-phenylacetamido)-4-thia-1-azabicyclo[3.2.0]heptane-2-carboxylate] | affectively penetrate through the waxy cuticle layer and through the epidermis to access the phloem |  | not being successfully metabolized to the active antibiotic |  |
| CCCCCCCCCC(=O)OCOC(=O)[C@@H]1N2C(=O)[C@@H](NC(=O)Cc3ccccc3)[C@H]2SC1(C)C [product compound 5, (Decanoyloxy)methyl (2S,5R,6R)-3,3-dimethyl-7-oxo-6-(2-phenylacetamido)-4-thia-1-azabicyclo[3.2.0]heptane-2-carboxylate] | affectively penetrate through the waxy cuticle layer and through the epidermis to access the phloem | base peaks in the mass spectrum corresponded to the active antibiotics | hydrolyzed into the active antibiotic |  |
| benzylpenicillin (penicillin G) |  |  |  | effect on tree health (HLB; direct injected into infected citrus trees, alone or in combinations with other antibiotics): marked improvement; phytotoxicity (Candidatus Liberibacter): very little phytotoxicity; effectiveness against the pathogenic bacteria (Candidatus Liberibacter): extremely effective; penetration of citrus leaves or stems (citrus leaves): do not easily penetrate the waxy cuticle covering |
| [H]/N=C(/N)N[C@H]1[C@H](O)[C@@H](O)[C@H](O[C@@H]2O[C@@H](C)[C@](O)(C=O)[C@H]2O[C@@H]2O[C@@H](CO)[C@H](O)[C@@H](O)[C@@H]2NC)[C@@H](N/C(N)=N\[H])[C@@H]1O [streptomycin sulfate] |  |  |  | effect on HLB infected trees (HLB): only marginally improved the health of trees; bactericidal or bacteriostatic action [2]: bactericidal |
| CC[C@H]1CCC[C@H](O[C@H]2CC[C@H](N(C)C)[C@@H](C)O2)[C@@H](C)C(=O)C2=C[C@@H]3[C@@H](C=C[C@@H]4C[C@@H](O[C@@H]5O[C@@H](C)[C@H](OC)[C@@H](OC)[C@H]5OC)C[C@@H]34)[C@@H]2CC(=O)O1 [Spinosyn A] |  |  |  | penetration of citrus leaves or stems (citrus leaves): known to readily penetrate citrus leaves |

— patent US12329747B2, “Use of lipophilic beta-lactam antibiotics and carboxylate esters for the treatment of bacterial infections within citrus and other plant species” (priority 2019, dated 2025)
